Measured values as given in patent publication US10308644B2, “Heterocyclic compounds as immunomodulators” (Incyte Corporation, priority 2016, dated 2019).
pIC50: −log10 of the molar value.

target: PD-1/PD-L1 (Homo sapiens (Human), UniProt Q9NZQ7); experiment: PD-1/PD-L1 Homogeneous Time-Resolved Fluorescence (HTRF) Binding Assay; settings: recombinant human PD-1 (3 nM) and PD-L1 (10 nM), 25° C., PBS pH 7.4
Method in brief: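 Fc-tagged human PD-1 (25-167, 3 nM) and His-tagged PD-L1 (19-238, 10 nM) preincubated with inhibitor 40 min in PBS pH 7.4, 0.05% Tween-20, 0.1% BSA, 1% DMSO, 25 °C. Binding detected by HTRF (Eu anti-IgG/APC anti-His, 665/620 nm) after 60 min; IC50 from percent control activity.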

Sequence of PD-1/PD-L1 (Q9NZQ7 19-238): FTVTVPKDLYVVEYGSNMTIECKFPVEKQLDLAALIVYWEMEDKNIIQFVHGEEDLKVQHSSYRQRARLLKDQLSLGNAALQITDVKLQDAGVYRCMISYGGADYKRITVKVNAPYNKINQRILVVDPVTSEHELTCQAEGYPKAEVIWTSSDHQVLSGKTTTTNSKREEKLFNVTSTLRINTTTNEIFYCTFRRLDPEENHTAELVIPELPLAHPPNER

Compound | pIC50
Cc1c(Nc2ncnc3cc(CN4CC[C@@H](O)C4)cnc23)cccc1-c1cccc(-c2nc3cc(CN4CCC(C(=O)O)CC4)cc(C#N)c3o2)c1C [Example 207, (R)-1-((7-cyano-2-(3′-(7-((3-hydroxypyrrolidin-1-yl)methyl)pyrido [3,2-d]pyrimidin-4-ylamino)-2,2′-dimethylbiphenyl-3-yl)benzo[d]oxazol-5-yl)methyl)piperidine-4-carboxylic acid] | ≥ 8.00
Cc1c(-c2nc3cc(CN4CC[C@@H](C(=O)O)C4)cc(C#N)c3o2)cccc1-c1cccc(-c2nc3c(s2)CN(C)CC3)c1C [Example 73] | ≥ 8.00
Cc1c(NC(=O)c2nc3c(n2C)CCN(C2CC(F)(F)C2)C3)cccc1-c1cccc(-c2nc3cc(CN4CC[C@H](C(=O)O)C4)cc(C#N)c3o2)c1C [Example 40, (S)-1-((7-cyano-2-(3′-(5-(3,3-difluorocyclobutyl)-1-methyl-4,5,6,7-tetrahydro-1H-imidazo[4,5-c]pyridine-2-carboxamido)-2,2′-dimethylbiphenyl-3-yl)benzo[d]oxazol-5-yl)methyl)pyrrolidine-3-carboxylic acid] | 7.00 to 8.00
Cc1c(-c2nc3cc(CN4CC[C@@](C)(C(=O)O)C4)cc(C#N)c3o2)cccc1-c1cccc(Nc2nccc3cc(CN4CC[C@@H](O)C4)cnc23)c1Cl [Example 187, (R)-1-((2-(2′-chloro-3′-(3-(((R)-3-hydroxypyrrolidin-1-yl)methyl)-1,7-naphthyridin-8-ylamino)-2-methylbiphenyl-3-yl)-7-cyanobenzo[d]oxazol-5-yl)methyl)-3-methylpyrrolidine-3-carboxylic acid] | ≥ 8.00
Cc1c(-c2nc3cc(CN4CCC(C(=O)O)CC4)cc(C#N)c3o2)cccc1-c1cccc(NC(=O)c2nc3c(n2C)CCN(C)C3)c1Cl [Example 89, 1-((2-(2′-chloro-3′-(1,5-dimethyl-4,5,6,7-tetrahydro-1H-imidazo[4,5-c]pyridine-2-carboxamido)-2-methylbiphenyl-3-yl)-7-cyanobenzo[d]oxazol-5-yl)methyl)piperidine-4-carboxylic acid] | ≥ 8.00
Cc1c(Nc2ncnc3cc(CNC[C@H](C)O)cnc23)cccc1-c1cccc(-c2nc3cc(CN4CC[C@@](C)(C(=O)O)C4)cc(C#N)c3o2)c1C [Example 208, (R)-1-((7-cyano-2-(3′-(7-(((S)-2-hydroxypropylamino)methyl)pyrido[3,2-d]pyrimidin-4-ylamino)-2,2′-dimethylbiphenyl-3-yl)benzo[d]oxazol-5-yl)methyl)-3-methylpyrrolidine-3-carboxylic acid] | ≥ 8.00
Cc1c(NC(=O)c2nc3c(n2C)CCN(C)C3)cccc1-c1cccc(-c2nc3cc(CN4CCC(C(=O)O)CC4)cc(C#N)c3o2)c1C [Example 259, 1-((7-cyano-2-(3′-(1,5-dimethyl-4,5,6,7-tetrahydro-1H-imidazo[4,5-c]pyridine-2-carboxamido)-2,2′-dimethylbiphenyl-3-yl)benzo[d]oxazol-5-yl)methyl)piperidine-4-carboxylic acid] | ≥ 8.00
Cc1c(Nc2nccc3cc(CN4CC[C@@H](O)C4)cnc23)cccc1-c1cccc(-c2nc3cc(CNCCc4ccc(C(=O)O)cc4)cc(C#N)c3o2)c1C [Example 171, (R)-4-(2-((7-cyano-2-(3′-(3-((3-hydroxypyrrolidin-1-yl)methyl)-1,7-naphthyridin-8-ylamino)-2,2′-dimethylbiphenyl-3-yl)benzo[d]oxazol-5-yl)methylamino)ethyl)benzoic acid] | ≥ 8.00
Cc1c(-c2nc3cc(CN4CC[C@@H](O)C4)cc(C#N)c3o2)cccc1-c1cccc(NC(=O)c2nc3c(n2C)CCN(CC2CCC(C)(C(=O)O)CC2)C3)c1Cl (single isomer, unassigned; peak 2) [Example 269] | ≥ 8.00

The next lines start with the values.

pIC50 | Compound
≥ 8.00 | Cc1c(Nc2nccc3cc(CN4CC(O)C4)cnc23)cccc1-c1cccc(-c2nc3cc(CN4CC[C@@H](C(=O)O)C4)cc(C#N)c3o2)c1C [Example 136, (R)-1-((7-cyano-2-(3′-(3-((3-hydroxyazetidin-1-yl)methyl)-1,7-naphthyridin-8-ylamino)-2,2′-dimethylbiphenyl-3-yl)benzo[d]oxazol-5-yl)methyl)pyrrolidine-3-carboxylic acid]
≥ 8.00 | Cc1c(-c2nc3c(o2)CCNC3)cccc1-c1cccc(-c2nc3cc(CN4CC[C@@H](C(=O)O)C4)cc(C#N)c3o2)c1C [Example 75, (R)-1-((7-cyano-2-(2,2′-dimethyl-3′-(4,5,6,7-tetrahydrooxazolo[4,5-c]pyridin-2-yl)-[1,1′-biphenyl]-3-yl)benzo[d]oxazol-5-yl)methyl)pyrrolidine-3-carboxylic acid]
≥ 8.00 | Cc1c(Nc2nccc3cc(CN4CC[C@H](O)C4)cnc23)cccc1-c1cccc(-c2nc3cc(CN4CCCC[C@H]4C(=O)O)cc(Cl)c3o2)c1C [Example 5, (S)-1-((7-chloro-2-(3′-((3-(((S)-3-hydroxypyrrolidin-1-yl)methyl)-1,7-naphthyridin-8-yl)amino)-2,2′-dimethyl-[1,1′-biphenyl]-3-yl)benzo[d]oxazol-5-yl)methyl)piperidine-2-carboxylic acid]
≥ 8.00 | Cc1c(Nc2nccc3cc(CNC(C)(C)CO)cnc23)cccc1-c1cccc(-c2nc3cc(CN4CC[C@@](C)(C(=O)O)C4)cc(C#N)c3o2)c1C [Example 198, (R)-1-((7-cyano-2-(3′-(3-((1-hydroxy-2-methylpropan-2-ylamino)methyl)-1,7-naphthyridin-8-ylamino)-2,2′-dimethylbiphenyl-3-yl)benzo[d]oxazol-5-yl)methyl)-3-methylpyrrolidine-3-carboxylic acid]
≥ 8.00 | Cc1c(-c2nc3cc(CN4CC[C@@H](C(=O)O)C4)cc(C#N)c3o2)cccc1-c1cccc(Nc2nccc3cc(C4CCCN4)cnc23)c1Cl (stereo partly drawn) [Example 97, (3R)-1-((2-(2′-chloro-2-methyl-3′-(3-(pyrrolidin-2-yl)-1,7-naphthyridin-8-ylamino)biphenyl-3-yl)-7-cyanobenzo[d]oxazol-5-yl)methyl)pyrrolidine-3-carboxylic acid]
≥ 8.00 | Cc1c(Nc2nccc3c(CN4CC[C@H](O)C4)ccnc23)cccc1-c1cccc(-c2nc3cc(CN4CC[C@@H](C(=O)O)C4)cc(C#N)c3o2)c1C [Example 145, (R)-1-((7-cyano-2-(3′-((4-(((S)-3-hydroxypyrrolidin-1-yl)methyl)-1,7-naphthyridin-8-yl)amino)-2,2′-dimethyl-[1,1′-biphenyl]-3-yl)benzo[d]oxazol-5-yl)methyl)pyrrolidine-3-carboxylic acid]
≥ 8.00 | Cc1c(-c2nc3cc(CN4CC[C@@H](O)C4)cc(Cl)c3o2)cccc1-c1cccc(NC(=O)c2cc(CN3CC[C@@H](C(=O)O)C3)cn(C)c2=O)c1Cl [Example 151, (R)-1-((5-(2-chloro-3′-(7-chloro-5-(((R)-3-hydroxypyrrolidin-1-yl)methyl)benzo[d]oxazol-2-yl)-2′-methylbiphenyl-3-ylcarbamoyl)-1-methyl-6-oxo-1,6-dihydropyridin-3-yl)methyl)pyrrolidine-3-carboxylic acid]
≥ 8.00 | Cc1c(-c2nc3c(o2)CN(C(=O)CN2CC[C@@H](O)C2)C3)cccc1-c1cccc(-c2nc3cc(CN4CC[C@@H](C(=O)O)C4)cc(C#N)c3o2)c1C [Example 126, (R)-1-((7-cyano-2-(3′-(5-(2-((R)-3-hydroxypyrrolidin-1-yl)acetyl)-5,6-dihydro-4H-pyrrolo[3,4-d]oxazol-2-yl)-2,2′-dimethyl-[1,1′-biphenyl]-3-yl)benzo[d]oxazol-5-yl)methyl)pyrrolidine-3-carboxylic acid]
